According to ChEMBL document CHEMBL1201862, “PubChem BioAssay data set” (2004):
Activity calls are given as the source filed them.

Key:
[1] = target: T1, Heat shock factor protein 1 (Mus musculus, UniProt P38532); assay: HSF1 potentiators in luciferase reporter cells, confirmation, cell-based, NIH3T3, luminescence, dose retest (AID 435004); type: functional;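 note: stress induced by proteasome inhibitor MG132 added 30 min after compound; luciferase reporter driven by HSF1 response element in NIH3T3 cells; actives raise luminescence as potentiators of the MG132 stress response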
T1 sequence (P38532 whole entry): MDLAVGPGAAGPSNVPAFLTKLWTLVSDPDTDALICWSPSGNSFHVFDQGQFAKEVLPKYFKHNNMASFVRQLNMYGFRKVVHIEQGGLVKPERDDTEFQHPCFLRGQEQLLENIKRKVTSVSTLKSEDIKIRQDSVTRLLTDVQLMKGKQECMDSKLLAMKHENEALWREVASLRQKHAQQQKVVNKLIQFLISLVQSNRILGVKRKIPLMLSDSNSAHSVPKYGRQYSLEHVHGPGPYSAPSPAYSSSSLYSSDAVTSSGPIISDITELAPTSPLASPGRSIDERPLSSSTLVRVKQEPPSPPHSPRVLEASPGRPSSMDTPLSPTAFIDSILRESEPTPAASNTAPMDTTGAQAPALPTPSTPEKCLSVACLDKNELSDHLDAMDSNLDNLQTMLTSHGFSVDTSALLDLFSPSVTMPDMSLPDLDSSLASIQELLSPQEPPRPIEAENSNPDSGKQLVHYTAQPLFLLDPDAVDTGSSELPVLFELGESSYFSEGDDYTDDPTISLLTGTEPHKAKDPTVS

Phospholipase A2 = Phospholipase A2 (Homo sapiens, UniProt P04054); type: functional;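 note: confirmatory dose-response counterscreen on phospholipase A2, testing hits that came from an ultra-high-throughput screen for ATG4B inhibitors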
Cysteine protease ATG4B = target: T2, Cysteine protease ATG4B (Homo sapiens, UniProt Q9Y4P1); type: functional;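 note: Fluorescence-based dose-response confirmation assay measuring inhibition of ATG4B activity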
T2 sequence (Q9Y4P1 whole entry): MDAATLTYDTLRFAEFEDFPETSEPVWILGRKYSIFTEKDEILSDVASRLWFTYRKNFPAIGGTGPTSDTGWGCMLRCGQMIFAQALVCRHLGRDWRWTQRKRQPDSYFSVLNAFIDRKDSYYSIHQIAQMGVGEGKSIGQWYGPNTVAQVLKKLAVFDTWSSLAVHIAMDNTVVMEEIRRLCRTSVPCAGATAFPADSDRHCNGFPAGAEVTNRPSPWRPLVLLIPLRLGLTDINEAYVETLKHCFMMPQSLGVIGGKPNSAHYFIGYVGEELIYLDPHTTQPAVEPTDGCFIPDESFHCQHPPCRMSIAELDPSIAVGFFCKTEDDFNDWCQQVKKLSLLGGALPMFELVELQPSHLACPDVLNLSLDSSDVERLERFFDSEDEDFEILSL

[2] = target: T3, Endoribonuclease toxin MazF (Escherichia coli K-12, UniProt P0AE70); assay: fluorescent RNA oligo signal without MazF, dose response, counter-screen for MazEF activator project, biochemical, fluorescence, single-stranded RNase substrate (AID 588502); type: functional
T3 sequence (P0AE70 whole entry): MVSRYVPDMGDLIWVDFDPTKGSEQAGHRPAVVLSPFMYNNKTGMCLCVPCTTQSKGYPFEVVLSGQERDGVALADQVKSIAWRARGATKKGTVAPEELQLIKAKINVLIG

[3] = target: T3, Endoribonuclease toxin MazF; assay: MazF toxin RNase activators, dose response, biochemical, fluorescence, single-stranded RNA substrate, uHTS hits (AID 588481); type: functional
[4] = HEp-2 cell cytotoxicity, dose response, cytotoxicity control for RSV inhibitor project, HTS (AID 2410); type: functional; settings: human respiratory syncytial virus
DNA topoisomerase = target: T4, DNA topoisomerase (Yersinia pestis, UniProt A0A2S9PM60); assay: Y. pestis Topo-I inhibitors, cleavage product readout, dose response, biochemical, cherry-pick (AID 588525)
T4 sequence (A0A2S9PM60 whole entry): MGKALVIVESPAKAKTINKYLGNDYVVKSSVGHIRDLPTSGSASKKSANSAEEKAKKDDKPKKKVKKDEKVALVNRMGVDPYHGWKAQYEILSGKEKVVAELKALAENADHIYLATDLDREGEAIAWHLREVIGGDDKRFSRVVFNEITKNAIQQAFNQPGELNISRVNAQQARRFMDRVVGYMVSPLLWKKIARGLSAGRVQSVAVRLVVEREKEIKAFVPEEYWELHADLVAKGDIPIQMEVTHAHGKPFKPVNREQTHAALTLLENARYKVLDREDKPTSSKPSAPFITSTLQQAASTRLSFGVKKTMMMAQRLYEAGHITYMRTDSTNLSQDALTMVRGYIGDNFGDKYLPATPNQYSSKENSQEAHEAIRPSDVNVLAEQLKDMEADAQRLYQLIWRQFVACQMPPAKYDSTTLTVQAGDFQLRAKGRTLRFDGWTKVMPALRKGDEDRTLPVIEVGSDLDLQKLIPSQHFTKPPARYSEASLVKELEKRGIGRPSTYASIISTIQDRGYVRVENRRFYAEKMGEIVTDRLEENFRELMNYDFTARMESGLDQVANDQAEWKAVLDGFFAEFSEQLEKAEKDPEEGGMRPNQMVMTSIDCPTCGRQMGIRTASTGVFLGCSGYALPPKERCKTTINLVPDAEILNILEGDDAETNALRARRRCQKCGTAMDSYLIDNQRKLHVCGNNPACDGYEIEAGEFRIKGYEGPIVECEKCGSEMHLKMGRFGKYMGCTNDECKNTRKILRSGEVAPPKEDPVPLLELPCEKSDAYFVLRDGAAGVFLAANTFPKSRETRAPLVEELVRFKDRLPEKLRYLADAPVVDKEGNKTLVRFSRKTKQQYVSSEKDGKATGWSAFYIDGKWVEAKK

[5] = target: T5, Type-1 angiotensin II receptor (Homo sapiens, UniProt P30556); assay: AT1 receptor antagonists, dose response, selectivity assay for APJ receptor antagonist project, cell-based, uHTS hits (AID 463214); type: functional;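 note: antagonist potency against angiotensin II stimulated AT1 response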
T5 sequence (P30556 whole entry): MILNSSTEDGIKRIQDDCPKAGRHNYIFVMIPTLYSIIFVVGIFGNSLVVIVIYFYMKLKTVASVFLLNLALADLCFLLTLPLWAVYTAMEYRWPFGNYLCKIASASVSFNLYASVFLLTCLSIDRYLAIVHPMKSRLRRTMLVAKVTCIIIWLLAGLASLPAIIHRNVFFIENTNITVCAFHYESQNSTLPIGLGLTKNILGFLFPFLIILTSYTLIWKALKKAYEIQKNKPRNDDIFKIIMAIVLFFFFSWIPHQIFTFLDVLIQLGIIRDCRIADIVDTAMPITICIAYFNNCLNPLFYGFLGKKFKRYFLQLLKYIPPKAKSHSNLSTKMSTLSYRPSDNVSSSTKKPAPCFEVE

Beta-galactosidase = Beta-galactosidase (Escherichia coli, UniProt Q8VNN2); assay: PubChem AID 485352; type: functional
[6] = target: T6, RNA-binding protein pos-1 (Caenorhabditis elegans, UniProt G5EF15); assay: inhibitors of POS-1/mex-3 RNA binding, dose response, biochemical, fluorescence polarization (AID 1964);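 note: purified POS-1 fused to maltose binding protein made in E. coli; potency of compounds blocking POS-1 binding to fluorescent RNA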
T6 sequence (G5EF15 whole entry): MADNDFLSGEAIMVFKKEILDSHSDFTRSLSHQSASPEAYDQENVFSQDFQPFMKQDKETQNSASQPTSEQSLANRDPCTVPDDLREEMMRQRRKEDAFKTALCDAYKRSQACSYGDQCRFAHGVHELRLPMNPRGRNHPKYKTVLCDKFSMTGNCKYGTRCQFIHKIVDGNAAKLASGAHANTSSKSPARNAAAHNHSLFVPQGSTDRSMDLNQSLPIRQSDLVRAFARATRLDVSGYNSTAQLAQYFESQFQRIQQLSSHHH

[7] = target: T7, Zinc finger protein mex-5 (Caenorhabditis elegans, UniProt Q9XUB2); assay: MEX-5/TCR-2 RNA interaction inhibitors, dose response, biochemical, C. elegans, fluorescence polarization (AID 1960)
T7 sequence (Q9XUB2 whole entry): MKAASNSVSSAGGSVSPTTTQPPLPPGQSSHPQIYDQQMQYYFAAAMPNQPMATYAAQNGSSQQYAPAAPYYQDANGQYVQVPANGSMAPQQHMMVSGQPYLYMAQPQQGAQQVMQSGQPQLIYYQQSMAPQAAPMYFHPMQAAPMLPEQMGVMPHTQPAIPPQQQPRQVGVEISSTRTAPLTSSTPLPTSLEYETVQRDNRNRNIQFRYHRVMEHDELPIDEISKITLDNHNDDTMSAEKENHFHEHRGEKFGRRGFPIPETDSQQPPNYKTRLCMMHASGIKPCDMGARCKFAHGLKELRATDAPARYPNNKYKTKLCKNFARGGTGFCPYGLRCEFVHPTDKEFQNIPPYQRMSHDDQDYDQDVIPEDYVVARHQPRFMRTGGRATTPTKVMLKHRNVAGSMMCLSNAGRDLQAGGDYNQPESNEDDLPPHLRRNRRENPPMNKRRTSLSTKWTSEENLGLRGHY

Phospholipase A2, sequence (P04054 whole entry): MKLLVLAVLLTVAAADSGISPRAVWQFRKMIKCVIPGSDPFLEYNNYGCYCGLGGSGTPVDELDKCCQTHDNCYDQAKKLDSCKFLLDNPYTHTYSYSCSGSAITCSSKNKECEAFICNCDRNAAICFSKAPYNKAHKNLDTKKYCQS
Beta-galactosidase, sequence (Q8VNN2 whole entry, the tested form may be a part): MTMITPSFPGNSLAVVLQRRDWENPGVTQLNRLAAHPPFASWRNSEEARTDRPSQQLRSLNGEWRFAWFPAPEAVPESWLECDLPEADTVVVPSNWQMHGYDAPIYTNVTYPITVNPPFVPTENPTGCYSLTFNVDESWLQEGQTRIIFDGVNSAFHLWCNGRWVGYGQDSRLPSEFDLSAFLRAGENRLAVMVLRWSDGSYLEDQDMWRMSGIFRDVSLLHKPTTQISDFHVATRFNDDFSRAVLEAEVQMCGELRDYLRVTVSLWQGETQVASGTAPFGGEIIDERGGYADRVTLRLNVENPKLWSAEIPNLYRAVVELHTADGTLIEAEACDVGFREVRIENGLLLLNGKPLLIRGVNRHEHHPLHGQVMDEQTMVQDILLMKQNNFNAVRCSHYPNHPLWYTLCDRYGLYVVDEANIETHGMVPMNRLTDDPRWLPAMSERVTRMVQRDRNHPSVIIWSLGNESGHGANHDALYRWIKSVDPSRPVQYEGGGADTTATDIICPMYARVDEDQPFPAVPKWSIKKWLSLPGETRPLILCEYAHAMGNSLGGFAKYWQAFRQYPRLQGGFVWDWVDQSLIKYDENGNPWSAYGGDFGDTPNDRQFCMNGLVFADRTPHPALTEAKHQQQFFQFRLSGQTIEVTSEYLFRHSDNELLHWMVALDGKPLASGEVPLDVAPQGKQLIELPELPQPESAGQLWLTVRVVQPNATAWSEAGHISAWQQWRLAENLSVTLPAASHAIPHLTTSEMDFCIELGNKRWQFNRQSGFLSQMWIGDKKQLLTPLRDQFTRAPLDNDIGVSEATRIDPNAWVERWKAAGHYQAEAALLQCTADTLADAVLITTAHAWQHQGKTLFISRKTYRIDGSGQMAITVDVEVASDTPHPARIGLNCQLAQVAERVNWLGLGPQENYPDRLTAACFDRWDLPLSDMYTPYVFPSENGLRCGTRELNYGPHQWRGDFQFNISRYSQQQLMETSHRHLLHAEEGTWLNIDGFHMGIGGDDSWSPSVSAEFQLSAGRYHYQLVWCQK

Row | Structure (SMILES) | IC50 (Phospholipase A2) | IC50 (Cysteine protease ATG4B) | EC50 [2] | EC50 [3] | also measured
1 | NC(=O)c1ccc(C(F)(F)F)n(Cc2cccc(Cl)c2)c1=O | 3.93 µM (active) | 26.3 µM (inactive) | – | – | EC50 [1]: > 260 µM (inactive)
2 | O=C(O)c1ccc(C[n+]2c(-c3ccccc3)csc2Nc2ccccc2)cc1 | > 80 µM (inactive) | 15.1 µM (active) | – | – | –
3 | N#Cc1ccc(-c2cccnc2)nc1SCC(=O)c1ccccc1 | – | – | 35.9 µM (inactive) | 23.3 µM (inactive) | –
4 | Cc1ccc(C2=C/C(=C/c3cccs3)C(=O)O2)cc1 | – | – | 28.2 µM (inactive) | > 99 µM (inactive) | –
5 | O=C1CN(C(=O)CSc2nc3cc(Cl)ccc3c(=O)n2Cc2ccccc2)c2ccccc2N1 | – | – | – | – | CC50 [4]: 46.4 µM (active); AC50 (DNA topoisomerase): 9.89 µM (active)
6 | O=C(c1ccc(-n2c(SCc3cc(F)ccc3F)nc3ccccc3c2=O)cc1)N1CCOCC1 | 11.7 µM (active) | 8.7 µM (active) | – | – | –
7 | Cc1ccc(C(=O)CNc2cccc(Cl)c2)cc1 | – | – | – | – | IC50 [5]: 9.87 µM (active); EC50 (Beta-galactosidase): > 40 µM (inactive); AC50 (DNA topoisomerase): 21.7 µM (active)
8 | COc1ccc(/C=C/c2nc3sc4c(c3c(=O)o2)CCC4)cc1 | – | – | > 99 µM (inactive) | 46.6 µM (inactive) | EC50 [6]: 6.97 µM (inconclusive); EC50 [7]: 125 µM (inconclusive)
